Measured values taken from ChEMBL document CHEMBL6087486, “Monomeric or Homodimer Conjugates of Fibroblast Activation Protein Inhibitor and Cyanine 7 Bearing a Meso-Chloride as Near-Infrared Fluorescence Probes: Design, Synthesis, and Comparative In Vivo Imaging of Distinct Breast Cancer Subtypes” (J Med Chem, 2025).
Activity calls are given as the source filed them. The rule behind the calls is not given here.

Key:
MCF7 [1] = experiment: Antitumor activity against human MCF7 cells xenografted in mouse assessed as obvious effect at 10 to 20 mg/kg, iv administered on days 1, 6, 11 and 16 measured on day 21; format: functional, organism-based; settings: dose 10-20 mg/kg, time 21.0 day
MCF7 [2] = experiment: Cytotoxicity against human MCF7 cells at >=5 uM after 24 hrs by CCK8 assay; format: functional, cell-based
[3] = Tlast in ICR mouse at 2 mg/kg, iv measured upto 24 hrs by LC-MS/MS analysis; format: ADME, organism-based; settings: in vivo
MDA-MB-231 [4] = experiment: Cytotoxicity against human MDA-MB-231 cells assessed as survival rate upto 20 uM after 24 hrs by CCK8 assay relative to control; format: functional; settings: up to 20 µM
[5] = Ratio of drug uptake in tumor to liver of NCG mouse xenografted with human MDA-MB-231 cells at 15 uM, iv measured after 48 hrs by IVIS analysis; format: ADME, organism-based; settings: in vivo
[6] = MRT (0 to infinity) in ICR mouse at 2 mg/kg, iv measured upto 24 hrs by LC-MS/MS analysis; format: ADME, organism-based; settings: in vivo
[7] = Drug uptake in human MCF7 cells assessed as fold increase in fluorescence intensity at 2 uM incubated for 2 hrs by CLSM analysis relative to control; format: functional
[8] = Metabolic stability in human liver microsomes assessed as intrinsic clearance; format: ADME, Microsome; settings: read-out: CLH
MDA-MB-231 [9] = experiment: Cytotoxicity against human MDA-MB-231 cells at; format: functional, cell-based; settings: dose < 2.0 µM, time 24.0 hrs
MCF7 [10] = experiment: Antitumor activity against human MCF7 cells xenografted in mouse assessed as decrease in tumor volume at 10 mg/kg, iv administered on days 1, 6, 11 and 16 measured on day 10; format: functional, organism-based; settings: time 10.0 day
[11] = Metabolic stability in human liver microsomes assessed as half life; format: ADME, Microsome
[12] = AUC (0 to t) in ICR mouse at 2 mg/kg, iv measured upto 24 hrs by LC-MS/MS analysis; format: ADME, organism-based; settings: in vivo
[13] = Biodistribution in liver of NCG mouse xenografted with human MDA-MB-231 cells at 15 uM, iv measured for 24 hrs by IVIS analysis; format: ADME, organism-based; settings: in vivo
[14] = Biodistribution in tumor of NCG mouse xenografted with human MDA-MB-231 cells assessed as maximum fluorescence intensity at 15 uM, iv measured for 24 hrs by IVIS analysis; format: ADME, organism-based, Neoplasm; settings: in vivo
MCF7 [15] = experiment: Antitumor activity against human MCF7 cells xenografted in mouse assessed as tumor growth inhibition administered intravenously on days 1, 6, 11 and 16 measured on day 21; format: functional; settings: dose 10-20 mg/kg, route iv, time 21.0 day
[16] = Half life in ICR mouse at 2 mg/kg, iv measured upto 24 hrs by LC-MS/MS analysis; format: ADME, organism-based; settings: in vivo
[17] = Ratio of drug uptake in tumor to liver of NCG mouse xenografted with human MCF7 cells at 15 uM, iv measured after 72 hrs by IVIS analysis; format: ADME, organism-based; settings: in vivo
[18] = Absorption property of compound in methanol assessed as maximal wavelength at 0.5 to 4 uM by UV-vis spectrophotometry; format: physicochemical; settings: dose 0.5-4 µM
[19] = MRT (0 to t) in ICR mouse at 2 mg/kg, iv measured upto 24 hrs by LC-MS/MS analysis; format: ADME, organism-based; settings: in vivo
[20] = Emission property of compound in methanol assessed as maximal wavelength at 0.5 to 4 uM by […]; format: physicochemical; settings: dose 0.5-4 µM
[21] = Toxicity in mouse xenografted with human MCF7 cells assessed as change in body weight at 10 to 20 mg/kg, iv administered on days 1, 6, 11 and 16 measured for 21 days; format: organism-based; settings: in vivo, 504 h, dose 10-20 mg/kg, time 21 day
MCF7 [22] = experiment: Antitumor activity against human MCF7 cells xenografted in mouse assessed as tumor shrinkage at 20 mg/kg, iv administered on days 1, 6, 11 and 16 measured on day 10; format: functional, organism-based; settings: time 10.0 day
[23] = Metabolic stability in mouse liver microsomes assessed as intrinsic clearance; format: ADME, Microsome; settings: read-out: CLH
[24] = Metabolic stability in mouse liver microsomes assessed as half life; format: ADME, Microsome
MCF7 [25] = experiment: Cytotoxicity against human MCF7 cells at 20 uM after 24 hrs by CCK8 assay relative to control; format: functional
[26] = AUC (0 to infinity) in ICR mouse at 2 mg/kg, iv measured upto 24 hrs by LC-MS/MS analysis; format: ADME, organism-based; settings: in vivo
[27] = Drug uptake in human MDA-MB-231 cells assessed as fold increase in fluorescence intensity at 2 uM incubated for 2 hrs by CLSM analysis relative to control; format: functional
[28] = Biodistribution in tumor of NCG mouse xenografted with human MDA-MB-231 cells at 15 uM, iv measured for 24 hrs by IVIS analysis; format: ADME, organism-based, Neoplasm; settings: in vivo
[29] = Metabolic stability in human liver microsomes assessed as hepatic clearance rate; format: ADME, Microsome; settings: read-out: CLH
MCF7 [30] = experiment: Cytotoxicity against human MCF7 cells at; format: functional, cell-based; settings: dose < 2.0 µM, time 24.0 hrs
[31] = Biodistribution in liver of NCG mouse xenografted with human MCF7 cells at 15 uM, iv measured after 0.5 hrs by IVIS analysis; format: ADME, organism-based; settings: in vivo
[32] = Clearance in ICR mouse at 2 mg/kg, iv measured upto 24 hrs by LC-MS/MS analysis; format: ADME, organism-based; settings: in vivo
[33] = Apparent volume of distribution in ICR mouse at 2 mg/kg, iv measured upto 24 hrs by LC-MS/MS analysis; format: ADME, organism-based; settings: in vivo, read-out: Vz
[34] = Biodistribution in tumor of NCG mouse xenografted with human MCF7 cells assessed as maximum fluorescence intensity at 15 uM, iv measured after 8 hrs by IVIS analysis; format: ADME, organism-based, Neoplasm; settings: in vivo
[35] = Volume of distribution at steady state in ICR mouse at 2 mg/kg, iv measured upto 24 hrs by LC-MS/MS analysis; format: ADME, organism-based; settings: in vivo, read-out: Vdss
[36] = Biodistribution in tumor of NCG mouse xenografted with human MCF7 cells at 15 uM, iv measured after 1 to 2 hrs by IVIS analysis; format: ADME, organism-based, Neoplasm; settings: in vivo, time 1-2 hrs
[37] = C0 in ICR mouse at 2 mg/kg, iv measured upto 24 hrs by LC-MS/MS analysis; format: ADME, organism-based; settings: in vivo
[38] = Metabolic stability in mouse liver microsomes assessed as hepatic clearance rate; format: ADME, Microsome; settings: read-out: CLH
[39] = Biodistribution in tumor of NCG mouse xenografted with human MCF7 cells assessed as increase in retention time at 15 uM, iv measured for 0.5 to 72 hrs by IVIS analysis; format: ADME, organism-based, Neoplasm; settings: in vivo, time 0.5-72 hrs
MDA-MB-231 [40] = experiment: Cytotoxicity against human MDA-MB-231 cells assessed as survival rate at 20 uM after 24 hrs by CCK8 assay relative to control; format: functional; settings: read-out: Survival
[41] = Biodistribution in tumor of NCG mouse xenografted with human MCF7 cells at 15 uM, iv measured for 0.5 to 72 hrs by IVIS analysis; format: ADME, organism-based, Neoplasm; settings: in vivo, time 0.5-72 hrs
[42] = Ratio of drug uptake in tumor to liver of NCG mouse xenografted with human MDA-MB-231 cells at 15 uM, iv measured upto 72 hrs by IVIS analysis; format: ADME, organism-based; settings: in vivo
[43] = Biodistribution in tumor of NCG mouse xenografted with human MDA-MB-231 cells assessed as increase in retention time at 15 uM, iv measured for 0.5 to 72 hrs by IVIS analysis; format: ADME, organism-based, Neoplasm; settings: in vivo, time 0.5-72 hrs
[44] = Biodistribution in tumor of NCG mouse xenografted with human MDA-MB-231 cells 15 uM, iv measured upto 72 hrs by IVIS analysis; format: ADME, organism-based, Neoplasm; settings: in vivo
[45] = Biodistribution in tumor of NCG mouse xenografted with human MDA-MB-231 cells assessed as fluorescence intensity at 15 uM, iv measured after 4 hrs by IVIS analysis; format: ADME, organism-based, Neoplasm; settings: in vivo
[46] = Biodistribution in tumor of NCG mouse xenografted with human MDA-MB-231 cells assessed as maximum fluorescence intensity at 15 uM, iv measured for 2 to 48 hrs by IVIS analysis; format: ADME, organism-based, Neoplasm; settings: in vivo, time 2-48 hrs
[47] = Biodistribution in liver of NCG mouse xenografted with human MCF7 cells at 15 uM, iv measured after 4 hrs by IVIS analysis; format: ADME, organism-based; settings: in vivo
MCF7 [48] = experiment: Cytotoxicity against human MCF7 cells assessed as survival rate at 20 uM after 24 hrs by CCK8 assay relative to control; format: functional; settings: read-out: Survival
MCF7 [49] = experiment: Cytotoxicity against human MCF7 cells at >25 uM after 24 hrs by CCK8 assay; format: functional, cell-based
MDA-MB-231 [50] = experiment: Cytotoxicity against human MDA-MB-231 cells at >25 uM after 24 hrs by CCK8 assay; format: functional, cell-based

SMILES | Tlast [3] [h] | MRT inf [6] [min] | fold change (FC) [7] | microsomal CLint [8] [µL/min/mg] | Activity (MDA-MB-231 [9]) | half-life [11] [min] | AUC(0-t) at 24 h [12] [ng·h/mL] | half-life [16] [min] | Ratio [17] | Activity [18] [nm] | MRT last at 24 h [19] [min] | Activity [20] [nm] | microsomal CLint [23] [µL/min/mg] | half-life [24] [min] | AUC(0-inf) [26] [ng·h/mL] | fold change (FC) [27] | CLint scaled [29] [mL/min/kg] | Activity (MCF7 [30]) | clearance [32] [mL/min/kg] | Vd [33] [L/kg] | other results
C#CCCCN1/C(=C/C=C2\CCCC(/C=C/C3=[N+](CCCc4cn(CCOCCOCCOCCOCCC(=O)N5CCN(CCCN(C)c6ccc7nccc(C(=O)NCC(=O)N8CC(F)(F)C[C@H]8C#N)c7c6)CC5)nn4)c4ccccc4C3(C)C)=C2Cl)C(C)(C)c2ccccc21 | 1.5 | 11.4 | 280 | 253 | inactive | 5.5 | 165 | 12.5 | 2.43 | 783 | 10.4 | 820 | 325 | 4.3 | 166 | 431 | 228 | inactive | 204 | 3.92 | Activity (MCF7 [1]): Active; Activity (MCF7 [2]): Active; Survival (MDA-MB-231 [4]): ~80%; Ratio [5]: 4.47; Activity (MCF7 [10]): inactive; Drug uptake [13]: Not_active; Flu intensity [14]: 8.43 10^7No_unit; inhibition (MCF7 [15]): Dose-dependent-effect; Activity [21]: Non-toxic; Activity (MCF7 [22]): Active; Activity (MCF7 [25]): 4.5%; Drug uptake [28]: Active; Drug uptake [31]: Not_active; Flu intensity [34]: 6.13 10^7No_unit; Vd [35]: 2.45 L/kg; Drug uptake [36]: Active; C0 at 24 h [37]: 829 ng/mL; CLint scaled [38]: 1290 mL/min/kg
CN(CCCN1CCN(C(=O)CCOCCOCCOCCOCCn2cc(CCCN3/C(=C/C=C4\CCCC(/C=C/C5=[N+](CCCc6cn(CCOCCOCCOCCOCCC(=O)N7CCN(CCCN(C)c8ccc9nccc(C(=O)NCC(=O)N%10CC(F)(F)C[C@H]%10C#N)c9c8)CC7)nn6)c6ccccc6C5(C)C)=C4Cl)C(C)(C)c4ccccc43)nn2)CC1)c1ccc2nccc(C(=O)NCC(=O)N3CC(F)(F)C[C@H]3C#N)c2c1 | 24 | 63.6 | 45 | 430 | inactive | 3.2 | 3600 | 690 | 2.07 | 784 | 36.2 | 823 | 313 | 4.4 | 3650 | 81 | 387 | inactive | 9 | 9.15 | Drug uptake [39]: Active; viability at 20 µM (MDA-MB-231 [40]): 67%; Drug uptake [41]: Active; Ratio [42]: > 3; Drug uptake [43]: Active; Drug uptake [44]: Active; Flu intensity [45]: > 2 10^8No_unit; Flu intensity [46]: 2.5 10^8No_unit; Drug uptake [47]: Not_active; viability at 20 µM (MCF7 [48]): 60%; Vd [35]: 0.583 L/kg; C0 at 24 h [37]: 16800 ng/mL; CLint scaled [38]: 1240 mL/min/kg
CN(CCCN1CCN(C(=O)CN2CCN(CC(=O)O)CCN(CC(=O)O)CCN(CC(=O)O)CC2)CC1)c1ccc2nccc(C(=O)NCC(=O)N3CC(F)(F)C[C@H]3C#N)c2c1 |  |  |  |  |  |  |  |  |  |  |  |  |  |  |  |  |  |  |  |  | Activity (MCF7 [49]): Active; Activity (MDA-MB-231 [50]): Active
CN(CCCN1CCN(C(=O)OC(C)(C)C)CC1)c1ccc2nccc(C(=O)NCC(=O)N3CC(F)(F)C[C@H]3C#N)c2c1 |  |  |  |  |  |  |  |  |  |  |  |  |  |  |  |  |  |  |  |  | Activity (MCF7 [49]): Active; Activity (MDA-MB-231 [50]): Active
